Laboratory results: ChEMBL document CHEMBL3102716, “High-throughput virtual screening identifies novel N'-(1-phenylethylidene)-benzohydrazides as potent, specific, and reversible LSD1 inhibitors” (J Med Chem, 2013)
Activity calls are given as the source filed them. The rule behind the calls is not given here.

Tests used:
[1] = molecular target: T1, Lysine-specific histone demethylase 1A (Homo sapiens, UniProt O60341)
Description: Inhibition of LSD1 (unknown origin) using dimethyl K4 peptide as substrate assessed as resorufin level by spectrophotometric analysis

[2] = tested on: T47D; assay: cells; conditions: Homo sapiens, 96 h
[3] = molecular target: T1, Lysine-specific histone demethylase 1A; assay: Non-competitive inhibition of recombinant full-length His6-tagged LSD1 (unknown origin) using dimethylated K4N-terminal H3 peptide as substrate at 100 nM by Michaelis-Menten plot analysis
[4] = Inhibition of glucose oxidase (unknown origin)
[5] = molecular target: Voltage-gated inwardly rectifying potassium channel KCNH2 (Homo sapiens, UniProt Q12809); assay: Inhibition of human ERG
Sequence of Voltage-gated inwardly rectifying potassium channel KCNH2 (Q12809 whole entry): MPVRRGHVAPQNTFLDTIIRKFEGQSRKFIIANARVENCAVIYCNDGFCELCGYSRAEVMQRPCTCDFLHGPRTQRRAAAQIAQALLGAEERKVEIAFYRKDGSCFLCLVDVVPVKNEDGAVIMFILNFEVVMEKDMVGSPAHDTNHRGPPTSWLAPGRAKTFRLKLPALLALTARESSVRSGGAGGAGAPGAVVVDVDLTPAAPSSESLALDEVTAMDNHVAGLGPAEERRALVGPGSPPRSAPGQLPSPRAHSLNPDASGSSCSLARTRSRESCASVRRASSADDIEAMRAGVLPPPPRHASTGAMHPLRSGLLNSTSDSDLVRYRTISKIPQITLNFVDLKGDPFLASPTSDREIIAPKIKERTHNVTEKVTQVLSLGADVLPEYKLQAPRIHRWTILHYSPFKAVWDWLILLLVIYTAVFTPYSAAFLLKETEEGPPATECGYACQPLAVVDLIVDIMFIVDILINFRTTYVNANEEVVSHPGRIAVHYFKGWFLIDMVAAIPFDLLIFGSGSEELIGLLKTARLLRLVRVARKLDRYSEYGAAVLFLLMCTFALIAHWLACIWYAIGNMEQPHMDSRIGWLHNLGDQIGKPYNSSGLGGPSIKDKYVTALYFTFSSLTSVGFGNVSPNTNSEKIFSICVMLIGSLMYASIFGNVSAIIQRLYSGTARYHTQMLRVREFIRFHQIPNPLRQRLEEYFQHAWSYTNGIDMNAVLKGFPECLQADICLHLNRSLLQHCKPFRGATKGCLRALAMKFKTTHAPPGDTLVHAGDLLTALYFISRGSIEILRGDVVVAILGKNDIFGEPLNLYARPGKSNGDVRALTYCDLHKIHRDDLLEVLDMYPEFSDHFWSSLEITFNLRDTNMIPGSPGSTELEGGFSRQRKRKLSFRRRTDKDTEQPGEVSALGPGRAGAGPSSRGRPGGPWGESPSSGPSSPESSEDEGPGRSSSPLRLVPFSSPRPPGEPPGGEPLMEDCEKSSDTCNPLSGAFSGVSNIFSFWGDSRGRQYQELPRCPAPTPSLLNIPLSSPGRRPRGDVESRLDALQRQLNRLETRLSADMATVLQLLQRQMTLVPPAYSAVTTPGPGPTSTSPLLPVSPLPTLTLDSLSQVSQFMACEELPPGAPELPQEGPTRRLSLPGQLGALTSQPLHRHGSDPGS

[6] = Inhibition of D-lactate dehydrogenase (unknown origin); set-up: species or system Homo sapiens
[7] = molecular target: T1, Lysine-specific histone demethylase 1A; assay: Reversible inhibition of full-length 6His-tagged LSD1 (unknown origin) at 10XIC50 preincubated for 1 hr followed by 100 fold dilution relative to control
[8] = molecular target: Cytochrome P450 2D6 (Homo sapiens, UniProt P10635); assay: Inhibition of CYP2D6 (unknown origin); assay type: ADME
Sequence of Cytochrome P450 2D6 (P10635 whole entry): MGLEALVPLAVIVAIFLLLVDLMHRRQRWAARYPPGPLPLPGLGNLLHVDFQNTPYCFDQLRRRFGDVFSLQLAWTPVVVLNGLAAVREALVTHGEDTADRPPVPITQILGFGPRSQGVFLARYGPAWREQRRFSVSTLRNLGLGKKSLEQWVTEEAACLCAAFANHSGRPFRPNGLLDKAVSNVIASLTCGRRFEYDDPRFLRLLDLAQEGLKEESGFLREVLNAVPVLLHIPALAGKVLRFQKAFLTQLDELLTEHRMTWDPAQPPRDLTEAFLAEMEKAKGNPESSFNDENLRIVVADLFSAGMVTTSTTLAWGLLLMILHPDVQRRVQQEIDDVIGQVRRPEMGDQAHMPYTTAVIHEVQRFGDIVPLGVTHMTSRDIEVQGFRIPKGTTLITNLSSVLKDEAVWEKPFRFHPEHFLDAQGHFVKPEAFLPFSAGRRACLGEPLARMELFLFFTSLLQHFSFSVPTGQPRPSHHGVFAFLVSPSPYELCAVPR

[9] = molecular target: T2, Cytochrome P450 1A2 (Homo sapiens, UniProt P05177); assay: Inhibition of CYP1A2 (unknown origin); assay type: ADME
T2 sequence (P05177 whole entry): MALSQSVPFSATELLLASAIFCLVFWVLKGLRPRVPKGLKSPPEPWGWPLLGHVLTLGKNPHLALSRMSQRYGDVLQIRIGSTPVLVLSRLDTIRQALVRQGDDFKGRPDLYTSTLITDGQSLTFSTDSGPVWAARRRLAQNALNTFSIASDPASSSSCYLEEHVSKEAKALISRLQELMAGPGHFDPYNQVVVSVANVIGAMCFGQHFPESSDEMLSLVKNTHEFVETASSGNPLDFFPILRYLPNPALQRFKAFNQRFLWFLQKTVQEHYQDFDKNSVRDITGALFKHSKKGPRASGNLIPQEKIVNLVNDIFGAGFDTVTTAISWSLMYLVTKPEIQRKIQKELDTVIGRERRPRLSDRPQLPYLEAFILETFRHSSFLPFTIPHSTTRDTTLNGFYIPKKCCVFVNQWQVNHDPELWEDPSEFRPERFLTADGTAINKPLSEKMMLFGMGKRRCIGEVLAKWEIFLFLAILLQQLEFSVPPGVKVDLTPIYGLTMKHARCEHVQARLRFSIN

[10] = molecular target: T1, Lysine-specific histone demethylase 1A; assay: Non-competitive inhibition of recombinant full-length His6-tagged LSD1 (unknown origin) using dimethylated K4N-terminal H3 peptide as substrate at 10 nM by Michaelis-Menten plot analysis
[11] = molecular target: Cytochrome P450 3A4 (Homo sapiens, UniProt P08684); assay: Inhibition of CYP3A4 (unknown origin); assay type: ADME
Sequence of Cytochrome P450 3A4 (P08684 whole entry): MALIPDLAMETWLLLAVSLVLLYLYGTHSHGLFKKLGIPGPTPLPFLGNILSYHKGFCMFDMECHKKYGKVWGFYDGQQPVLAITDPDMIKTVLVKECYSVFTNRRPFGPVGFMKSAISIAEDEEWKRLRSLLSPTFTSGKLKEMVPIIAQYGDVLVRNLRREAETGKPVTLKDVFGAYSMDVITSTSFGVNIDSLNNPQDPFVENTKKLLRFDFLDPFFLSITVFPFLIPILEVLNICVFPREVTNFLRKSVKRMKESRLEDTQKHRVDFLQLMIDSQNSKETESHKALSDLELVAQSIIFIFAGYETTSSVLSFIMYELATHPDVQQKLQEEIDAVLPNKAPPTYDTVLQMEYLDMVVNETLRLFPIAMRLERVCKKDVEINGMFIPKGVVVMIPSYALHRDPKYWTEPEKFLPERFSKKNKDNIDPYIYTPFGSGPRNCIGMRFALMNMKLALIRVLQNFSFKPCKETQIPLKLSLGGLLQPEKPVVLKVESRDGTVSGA

[12] = molecular target: T1, Lysine-specific histone demethylase 1A; assay: Binding affinity to recombinant full-length His6-tagged LSD1 (unknown origin) assessed as first derivative melting temperature at 15 uM after 30 mins by differential scanning fluorimetry
[13] = molecular target: T3, Amine oxidase [flavin-containing] B (Homo sapiens, UniProt P27338)
T3 sequence (P27338 whole entry): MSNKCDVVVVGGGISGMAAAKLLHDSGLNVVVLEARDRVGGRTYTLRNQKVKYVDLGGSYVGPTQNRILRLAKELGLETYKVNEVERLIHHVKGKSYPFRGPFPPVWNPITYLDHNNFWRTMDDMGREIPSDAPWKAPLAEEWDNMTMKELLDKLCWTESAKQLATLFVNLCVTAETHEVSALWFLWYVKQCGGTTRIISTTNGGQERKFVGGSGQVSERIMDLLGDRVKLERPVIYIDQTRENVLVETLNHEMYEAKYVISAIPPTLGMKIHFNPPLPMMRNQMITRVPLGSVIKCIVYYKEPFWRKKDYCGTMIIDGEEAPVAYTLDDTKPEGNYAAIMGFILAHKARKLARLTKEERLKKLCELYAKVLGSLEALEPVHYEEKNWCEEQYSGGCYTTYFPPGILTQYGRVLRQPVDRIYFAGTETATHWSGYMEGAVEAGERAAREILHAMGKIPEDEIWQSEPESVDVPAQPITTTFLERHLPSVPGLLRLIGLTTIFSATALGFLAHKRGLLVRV
Description: Inhibition of MAO-B (unknown origin)

[14] = molecular target: T1, Lysine-specific histone demethylase 1A; assay: Binding affinity to recombinant full-length His6-tagged LSD1 (unknown origin) assessed as Boltzmann melting temperature at 15 uM after 30 mins by differential scanning fluorimetry
[15] = molecular target: T4, Amine oxidase [flavin-containing] A (Homo sapiens, UniProt P21397)
T4 sequence (P21397 whole entry): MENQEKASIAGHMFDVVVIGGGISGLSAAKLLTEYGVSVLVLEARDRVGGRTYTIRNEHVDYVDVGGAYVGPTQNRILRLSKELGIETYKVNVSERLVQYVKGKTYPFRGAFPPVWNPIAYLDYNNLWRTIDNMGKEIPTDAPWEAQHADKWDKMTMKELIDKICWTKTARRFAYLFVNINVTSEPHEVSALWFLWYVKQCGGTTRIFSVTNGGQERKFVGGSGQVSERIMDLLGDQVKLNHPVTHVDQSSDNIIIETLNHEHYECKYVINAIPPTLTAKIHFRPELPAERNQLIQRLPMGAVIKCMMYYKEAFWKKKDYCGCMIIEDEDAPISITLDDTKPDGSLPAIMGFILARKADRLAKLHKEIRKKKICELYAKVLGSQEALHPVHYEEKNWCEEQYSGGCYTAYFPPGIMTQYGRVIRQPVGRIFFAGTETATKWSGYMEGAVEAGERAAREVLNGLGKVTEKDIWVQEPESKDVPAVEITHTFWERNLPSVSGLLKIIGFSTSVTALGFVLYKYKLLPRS
Description: Inhibition of MAO-A (unknown origin)

[16] = molecular target: T1, Lysine-specific histone demethylase 1A; assay: Non-competitive inhibition of recombinant full-length His6-tagged LSD1 (unknown origin) using dimethylated K4N-terminal H3 peptide as substrate at 3 nM by Michaelis-Menten plot analysis
[17] = molecular target: Cytochrome P450 2C19 (Homo sapiens, UniProt P33261); assay: Inhibition of CYP2C19 (unknown origin); assay type: ADME
Sequence of Cytochrome P450 2C19 (P33261 whole entry): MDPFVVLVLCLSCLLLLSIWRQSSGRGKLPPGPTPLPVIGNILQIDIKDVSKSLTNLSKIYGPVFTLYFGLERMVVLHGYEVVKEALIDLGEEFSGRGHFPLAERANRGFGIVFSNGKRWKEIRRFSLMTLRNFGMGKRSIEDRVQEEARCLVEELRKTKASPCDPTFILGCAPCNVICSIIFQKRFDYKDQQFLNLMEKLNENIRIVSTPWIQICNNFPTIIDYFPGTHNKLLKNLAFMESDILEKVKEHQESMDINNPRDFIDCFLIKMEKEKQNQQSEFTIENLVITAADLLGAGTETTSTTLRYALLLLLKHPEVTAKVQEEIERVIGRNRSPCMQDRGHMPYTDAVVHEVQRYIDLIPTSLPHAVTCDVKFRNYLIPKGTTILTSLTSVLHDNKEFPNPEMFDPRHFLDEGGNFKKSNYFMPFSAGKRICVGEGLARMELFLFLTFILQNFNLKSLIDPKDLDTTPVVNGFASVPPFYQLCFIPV

[18] = molecular target: Cytochrome P450 2C9 (Homo sapiens, UniProt P11712); assay: Inhibition of CYP2C9 (unknown origin); assay type: ADME
Sequence of Cytochrome P450 2C9 (P11712 whole entry): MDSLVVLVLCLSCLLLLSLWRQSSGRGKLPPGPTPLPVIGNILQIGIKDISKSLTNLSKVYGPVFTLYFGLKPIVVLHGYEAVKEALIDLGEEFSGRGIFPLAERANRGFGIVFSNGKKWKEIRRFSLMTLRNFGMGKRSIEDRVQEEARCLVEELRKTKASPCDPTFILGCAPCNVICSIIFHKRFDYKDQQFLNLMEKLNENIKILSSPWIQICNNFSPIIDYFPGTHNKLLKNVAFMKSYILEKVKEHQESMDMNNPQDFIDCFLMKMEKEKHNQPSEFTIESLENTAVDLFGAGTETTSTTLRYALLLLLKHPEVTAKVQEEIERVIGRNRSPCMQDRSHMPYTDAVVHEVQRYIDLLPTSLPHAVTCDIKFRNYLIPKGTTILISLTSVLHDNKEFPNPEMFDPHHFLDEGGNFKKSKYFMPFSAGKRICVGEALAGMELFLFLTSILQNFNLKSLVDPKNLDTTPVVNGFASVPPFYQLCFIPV

[19] = molecular target: T1, Lysine-specific histone demethylase 1A; assay: Non-competitive inhibition of recombinant full-length His6-tagged LSD1 (unknown origin) using dimethylated K4N-terminal H3 peptide as substrate at 30 nM by Michaelis-Menten plot analysis
[20] = molecular target: T1, Lysine-specific histone demethylase 1A; assay: Non-competitive inhibition of recombinant full-length His6-tagged LSD1 (unknown origin) using dimethylated K4N-terminal H3 peptide as substrate at 1 nM by Michaelis-Menten plot analysis
[21] = molecular target: T1, Lysine-specific histone demethylase 1A; assay: Binding affinity to recombinant full-length His6-tagged LSD1 (unknown origin) assessed as second derivative melting temperature at 15 uM after 30 mins by differential scanning fluorimetry (reference value: […] +/- 1.08 degC)
[22] = molecular target: T1, Lysine-specific histone demethylase 1A; assay: Reversible inhibition of full-length 6His-tagged LSD1 (unknown origin) at 10XIC50 after 1 hr relative to control
[23] = molecular target: T1, Lysine-specific histone demethylase 1A; assay: Inhibition of human recombinant LSD1 expressed in Escherichia coli BL21(DE3) using H3K4me2 as substrate by chemiluminescence assay
[24] = molecular target: T1, Lysine-specific histone demethylase 1A; assay: Inhibition of GST-tagged human recombinant LSD1 using dimethylated H3K4 peptide as substrate by mass spectrometric analysis

Row | SMILES | IC50 [1] [µM] | IC50 [2] [µM] | other results
1 | C/C(=N/NC(=O)c1cccc(S(=O)(=O)N2CCOCC2)c1)c1cccnc1 | > 3 | – | –
2 | COc1ccc(Cl)cc1C(=O)NNC(=O)c1cc(S(=O)(=O)N2CCOCC2)ccc1F | > 3 | > 10 | –
3 | CC/C(=N/NC(=O)c1cccc(S(=O)(=O)N2CCOCC2)c1)c1cc(Cl)ccc1O | > 3 | 0.352 | –
4 | C/C(=N/NC(=O)c1ccc(Cl)c(Br)c1)c1cc(Cl)ccc1O | > 3 | 0.565 | –
5 | C/C(=N\NC(=O)c1cccc(S(=O)(=O)N2CCOCC2)c1)c1cc(Cl)ccc1O | – | – | Ki [3]: 0.0547 µM; IC50 [4]: > 10 µM; IC50 [5]: > 10 µM; IC50 [6]: > 10 µM; inhibition [7]: 65.7%; IC50 [8]: > 10 µM; IC50 [9]: > 10 µM; Ki [10]: 0.0319 µM; IC50 [11]: 2.61 µM; Tm [12]: 45.4 °C; IC50 [13]: > 300 µM; Tm [14]: 44.6 °C; IC50 [15]: > 300 µM; Ki [16]: 0.0353 µM; IC50 [17]: 9.76 µM; IC50 [18]: 8.04 µM; Ki [19]: 0.0352 µM; Ki [20]: 0.0135 µM
6 | C/C(=N\NC(=O)c1cccc(S(=O)(=O)N2CCOCC2)c1)c1ccnc(Cl)c1 | > 3 | > 10 | –
7 | C/C(=N/NC(=O)c1cccc(S(=O)(=O)N(C)C)c1)c1cc(Cl)ccc1O | – | 1.38 | –
8 | C/C(=N\NC(=O)c1cccc(S(=O)(=O)N2CCOCC2)c1)c1cc(Cl)ccc1Cl | > 3 | 1.7 | Tm [21]: 46.7 °C; inhibition [7]: inactive; Tm [12]: 40.8 °C; Tm [14]: 43.3 °C; inhibition [22]: inactive
9 | C/C(=N\NC(=O)c1cccc(S(=O)(=O)N2CCOCC2)c1)c1cccc(Cl)c1F | > 3 | > 10 | –
10 | CCN(CC)c1cccc(C(=O)N/N=C(\C)c2cccc(C)c2)c1 | > 3 | > 10 | –
11 | CCNCCCNC/C=C\CNCCCNCC | – | – | IC50 [23]: 0.25 µM
12 | O=C(NNC(=O)c1cc(S(=O)(=O)N2CCOCC2)ccc1F)c1cccc(Cl)c1 | > 3 | > 10 | –
13 | C/C(=N\NC(=O)c1cccc(S(=O)(=O)N2CCOCC2)c1)c1cccc2ccccc12 | – | > 10 | –
14 | C/C(=N/NC(=O)c1cncc(Cl)c1)c1cc(Cl)ccc1O | > 3 | 0.616 | –
15 | COC(=O)c1cc(CN2CCN(C(=N)N)CC2)cc(C(=O)N2CCN(C(=O)c3ccc(C=N)cc3)CC2)c1 | – | – | IC50 [24]: 5.2 µM
16 | C/C(=N/NC(=O)c1cnc(Cl)c(Br)c1)c1cc(Cl)ccc1O | > 3 | 0.27 | –
17 | C/C(=N\NC(=O)c1ccccc1)c1c(O)cccc1O | > 3 | > 10 | –
